{"source": "patent US20170000112A1", "about": "“METHOD OF PRESERVING CUT ROSES DURING TRANSPORTATION AND STORAGE AND SHIPMENT KIT CONTAINING CUT ROSES” (priority 2013, published 2017)", "key": {"cut roses [1]": {"system": "cut roses", "assay": "Vase life of cut roses after 14 days simulated dry refrigerated transport (Examples 1 and 2)", "format": "in vivo, rose", "conditions": "flower heads dipped 3 s in 80 ppm BA, 14 days dry transport at 2° C.", "method": "Freshly cut red roses (Red Desire') were obtained from a greenhouse in the Netherlands. These flowers were randomly divided into three different sets . Within 4 hours of cutting, one set of flowers (set A) was subjected to a preservation treatment that involved dipping of the flower heads into an aqueous solution of 80 ppm 6-benzylaminopurine (BA) in tap water for 3 seconds. Immediately after the preservation treatment, each set of flowers was bunched and sleeved (6 flowers per sleeved bunch) after the ends of the flower stems had been cut off, and in total 108 flowers of each set were kept 24 hours at 2° C. under dark conditions in buckets (54 stems per bucket) with the flower stems immersed in 2 liters of water containing 1 ml/l of a flower pre-treatment product ([…]® Grow 20). Following this pre-treatment, the sleeved flower bunches of set A were removed from the buckets and packaged without any external water supply in a carton box (l×b×h=1.0×0.4×0.2 m). The carton box contained 18 sleeved flower bunches. One of the other two sets of flowers (Control) was packaged in the same way. The remaining set of flowers (Reference) was not packaged dry into a carton box, but immediately subjected to the sequence of storage and display conditions described in Table 1. [table] Before the refrigerated storage and the home display the ends of the flower stems were cut off. The packaged flowers (sleeved and in a carton box) belonging to Set A and the Control set were subjected to simulated refrigerated transport under dry, dark conditions for 14 days at 2° C. before also being subjected to the sequence of storage and display conditions described in Table 1. Before the refrigerated storage stage the BA concentrations in the flower heads were analyzed. In addition, the vase life of the flowers was assessed by an expert panel during the home display period. Example 1 was repeated, except that this time, instead of using cut roses obtained from a Dutch green house, cut roses that had been air transported under dry conditions from Kenya to the Netherlands were used. Three different types of cut red roses were used in this study, namely 'Hot Blood', 'Rhodos' and 'Incredible'."}, "cut red roses [2]": {"system": "cut red roses", "assay": "Colour retention of red roses after 11 days on the vase (Examples 1 and 2)", "format": "in vivo, rose", "conditions": "dipped in 80 ppm BA"}, "cut roses [3]": {"system": "cut roses", "assay": "Vase life and leaf quality after 9 days simulated dry transport (Examples 3 and 4)", "format": "in vivo, rose", "conditions": "for Vase life: dipped in 80 ppm BA, 9 days dry transport; for Leaf quality: visual score after 12 days on the vase, 1=poor, 5=good", "source_text": "Example 1 was repeated, except that this time no Reference set was used, i.e. the study used two sets of flowers that were both transported without water supply (dry). Furthermore, the cut roses used in the study had been air transported under dry conditions from Colombia to the Netherlands. Bunches containing 4 flowers of each of three different types of roses (‘Red Intuition’ (red), ‘Citran’ (yellow), ‘Vendela’ (white) were used in this study. The duration of simulated transportation was reduced from 14 to 9 days and the duration of shop display was increased from 2 to 3 days.\nBesides the vase life of the flowers the expert panel also scored visual leaf quality after 12 days on the vase (1=poor, 5=good). The BA concentration in the flower heads was not analyzed in this study.\nExample 3 was repeated, except that this time the following three different types of roses were used in the study: • ‘Freedom’ (red) • ‘Bonanza’ (peach) • ‘Sandra’ (pink)"}, "cut red roses [4]": {"system": "cut red roses", "assay": "Vase life, dipped/dry versus BA in bucket water, 24 hours at 2° C. (Example 5)", "format": "in vivo, rose", "source_text": "Three different types of cut red roses were used in this study, namely ‘Hot Blood’, ‘Rhodos’ and ‘Incredible’. For each type flowers were randomly divided into four different sets.\nOne set of flowers (set A) was subjected to a preservation treatment that involved dipping of the flower heads into an aqueous solution of 80 ppm 6-benzylaminopurine (BA) in tap water for 3 seconds.\nImmediately after the preservation treatment of set A, each set of flowers was bunched and sleeved (10 flowers per sleeved bunch) after the ends of the flower stems had been cut off, and in total 20 flowers of each set were kept for 4 hours at 20° C. under dark conditions in buckets (60 stems per bucket) with the flower stems immersed in 2 liters of water containing 1 ml/l of a flower pre-treatment product (Chrysal® Grow 20).\nFollowing this pre-treatment, the sleeved flower bunches of set A were removed from the buckets and packaged without any external water supply in a carton box (l×b×h=1.0×0.4×0.2 m). The carton box contained 6 sleeved flower bunches.\nOne of the other three sets of non-dipped flowers(Control) was packaged in the same way, i.e. in carton boxes without external water supply.\nThe remaining two sets of non-dipped flowers (sets B and C) were introduced into buckets (20 stems per bucket) that each contained 2 liters of water.\nThe bucket water of set B contained 7 ppm BA. The bucket water of set C contained 7 ppm BA as well as 5 ml/l of Chrysal® Clear Professional 2 (CCP2). This product is based on sugars and acidifier, while biocides are present to protect these active ingredients against bacterial attack.\nThe four sets of roses were kept at 2° C. under dark conditions for 24 hours, following which each set was transferred into buckets (60 stems per bucket) that contained 2 liters of water to which 5 ml/l Chrysal® Clear Professional 2 had been added. Before introducing the cut flowers into the buckets, the ends of the flower stems were cut off. The buckets holding the sleeved cut flowers were kept for 4 days under dark, refrigerated (2° C.) conditions, and subsequently for 2 days at 20° C. under daylight conditions (12 hours 1000 lux and 12 hours dark).\nNext, for each of the three different type of cut red roses the two bunches of 10 cut flowers from each of the sets were introduced in vases, each holding 1 liter of water to which 10 g/l Chrysal® Clear had previously been added. Before introducing the cut flowers into the vases, the ends of the flower stems were cut off. The vases holding the flowers were kept at 20° C. under daylight conditions (12 hours 1000 lux and 12 hours dark).\nThe quality of the cut flowers was assessed at regular intervals by an expert panel and from these assessments the average vase life was determined for the cut flowers of each of the 4 sets.\nThe letters behind the numerical scores in Table 8 indicate to which extent the difference between the 4 scores for a given set of cut flowers are statistically significant (at a P-value of 0.05). Scores that are followed by the same latter are not statistically significant."}, "cut red roses [5]": {"system": "cut red roses", "assay": "Vase life, dipped/dry versus BA in bucket water, 8 days at 2° C. (Example 6)", "format": "in vivo, rose", "method": "Example 5 was repeated, except that this time the sets of cut flowers were kept under refrigerated and dark conditions for 8 days instead of 24 hours."}, "[6]": {"system": "flower spikes of gladiolus and carnation", "conditions": "stems immersed in 10, 30 and 75 ppm solution; spikes previously wilted dry for 4 hours; cited from earlier work"}, "cut rose flowers": {"system": "cut rose flowers", "conditions": "sprayed or held in solution prior to simulated home conditions; cited from earlier work"}, "rose flower buds": {"system": "rose flower buds", "conditions": "350 mg/L (ca. 1 mM) solution; preliminary experiments, data not shown; cited from earlier work"}}, "data": [{"smiles": "c1ccc(CNc2ncnc3nc[nH]c23)cc1", "note": "[BA, 6-benzylaminopurine]", "values": [{"measurement": "Vase life", "setting": "cut roses [1]; 'Hot Blood' (Kenya)", "result": 13.9, "unit": "days"}, {"measurement": "Vase life", "setting": "cut roses [1]; 'Incredible' (Kenya)", "result": 13.0, "unit": "days"}, {"measurement": "Vase life", "setting": "cut roses [1]; 'Red Desire'", "result": 12.8, "unit": "days"}, {"measurement": "Vase life", "setting": "cut roses [1]; 'Rhodos' (Kenya)", "result": 14.9, "unit": "days"}, {"measurement": "Colour of the red roses after 11 days on the vase", "setting": "cut red roses [2]; 'Hot Blood', control showed blueing/darkening", "result": "retained most of their original red colour"}, {"measurement": "Colour of the red roses after 11 days on the vase", "setting": "cut red roses [2]; 'Incredible', control showed blueing/darkening", "result": "retained most of their original red colour"}, {"measurement": "Colour of the red roses after 11 days on the vase", "setting": "cut red roses [2]; 'Red Desire', control showed bluing/darkening", "result": "retained most of their original red colour"}, {"measurement": "Colour of the red roses after 11 days on the vase", "setting": "cut red roses [2]; 'Rhodos', control showed blueing/darkening", "result": "retained most of their original red colour"}, {"measurement": "Vase life", "setting": "cut roses [3]; 'Bonanza' (peach)", "result": 14.5, "unit": "days"}, {"measurement": "Vase life", "setting": "cut roses [3]; 'Citran' (yellow, Colombia)", "result": 12.5, "unit": "days"}, {"measurement": "Vase life", "setting": "cut roses [3]; 'Freedom' (red)", "result": 18.8, "unit": "days"}, {"measurement": "Vase life", "setting": "cut roses [3]; 'Red Intuition' (red, Colombia)", "result": 9.6, "unit": "days"}, {"measurement": "Vase life", "setting": "cut roses [3]; 'Sandra' (pink)", "result": 17.6, "unit": "days"}, {"measurement": "Vase life", "setting": "cut roses [3]; 'Vendela' (white, Colombia)", "result": 13.0, "unit": "days"}, {"measurement": "Leaf quality", "setting": "cut roses [3]; Example 3 (Red Intuition, Citran, Vendela)", "result": 3.0}, {"measurement": "Leaf quality", "setting": "cut roses [3]; Example 4 (Freedom, Bonanza, Sandra)", "result": 4.0}, {"measurement": "Vase life", "setting": "cut red roses [4]; 'Hot Blood', non-dipped, wet, stems in bucket water containing 7 ppm BA, 24 hours at 2° C.", "result": 11.2, "unit": "days"}, {"measurement": "Vase life", "setting": "cut red roses [4]; 'Hot Blood', set A, flower heads dipped in 80 ppm BA, dry in carton box 24 hours at 2° C.", "result": 16.2, "unit": "days"}, {"measurement": "Vase life", "setting": "cut red roses [4]; 'Incredible', non-dipped, wet, stems in bucket water containing 7 ppm BA, 24 hours at 2° C.", "result": 11.1, "unit": "days"}, {"measurement": "Vase life", "setting": "cut red roses [4]; 'Incredible', set A, flower heads dipped in 80 ppm BA, dry in carton box 24 hours at 2° C.", "result": 17.2, "unit": "days"}, {"measurement": "Vase life", "setting": "cut red roses [4]; 'Rhodos', non-dipped, wet, stems in bucket water containing 7 ppm BA, 24 hours at 2° C.", "result": 9.4, "unit": "days"}, {"measurement": "Vase life", "setting": "cut red roses [4]; 'Rhodos', set A, flower heads dipped in 80 ppm BA, dry in carton box 24 hours at 2° C.", "result": 13.9, "unit": "days"}, {"measurement": "Vase life of the dipped set versus the non-dipped sets", "setting": "cut red roses [4]; each of the rose types, P-value of 0.05, 24 hours at 2° C.", "result": "significantly longer vase life"}, {"measurement": "Average vase life of the dipped set versus the non-dipped sets", "setting": "cut red roses [5]; 'Hot Blood', P-value of 0.05, 8 days at 2° C.", "result": "higher than that of the non-dipped sets, but the difference with the control set and set C was not statistically significant"}, {"measurement": "Vase life", "setting": "cut red roses [5]; 'Hot Blood', non-dipped, wet, stems in bucket water containing 7 ppm BA, 8 days at 2° C.", "result": 7.3, "unit": "days"}, {"measurement": "Vase life", "setting": "cut red roses [5]; 'Hot Blood', set A, flower heads dipped in 80 ppm BA, dry in carton box 8 days at 2° C.", "result": 11.8, "unit": "days"}, {"measurement": "Vase life", "setting": "cut red roses [5]; 'Incredible', non-dipped, wet, stems in bucket water containing 7 ppm BA, 8 days at 2° C.", "result": 10.4, "unit": "days"}, {"measurement": "Vase life", "setting": "cut red roses [5]; 'Incredible', set A, flower heads dipped in 80 ppm BA, dry in carton box 8 days at 2° C.", "result": 14.8, "unit": "days"}, {"measurement": "Vase life", "setting": "cut red roses [5]; 'Rhodos', non-dipped, wet, stems in bucket water containing 7 ppm BA, 8 days at 2° C.", "result": 8.2, "unit": "days"}, {"measurement": "Vase life", "setting": "cut red roses [5]; 'Rhodos', set A, flower heads dipped in 80 ppm BA, dry in carton box 8 days at 2° C.", "result": 13.5, "unit": "days"}, {"measurement": "Vase life of the dipped set versus the non-dipped sets", "setting": "cut red roses [5]; two of the rose types ('Rhodos', 'Incredible'), P-value of 0.05, 8 days at 2° C.", "result": "significantly longer vase life"}, {"measurement": "Effect on vase life of flower spikes", "setting": "[6]", "result": "extended the vase life"}, {"measurement": "Effect on rose vase life", "setting": "cut rose flowers", "result": "did not benefit on rose vase life"}]}, {"smiles": "c1coc(CNc2ncnc3[nH]cnc23)c1", "note": "[KI, kinetin]", "values": [{"measurement": "Effect on rose vase life", "setting": "cut rose flowers", "result": "did not benefit on rose vase life"}]}, {"smiles": "C=C1C[C@]23C[C@@]1(O)CC[C@H]2[C@@]12C=C[C@H](O)[C@](C)(C(=O)O1)[C@H]2[C@@H]3C(=O)O", "note": "[GA3]", "values": [{"measurement": "Effect on rose flower vase-life when applied as a spray", "setting": "rose flower buds", "result": "optimal for improving rose flower vase-life"}]}]}
